Measured values as given in the supplement of paper PMC6045584.
± gives the standard deviation of the averaged measurements.

Legend:
[1] = compound: Cn1c(=O)n(-c2ccc(C(C)(C)C#N)cc2)c2c3cc(-c4cnc5ccccc5c4)ccc3ncc21 [BEZ-235]; assay: surviving fraction relative to DMSO-only wells; higher = less growth inhibition; conditions: exposure time: 5 days
Method in brief: (§1)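 Tumour cell lines in log phase were plated in 384-well plates at 250–500 cells per well, then, after 24 hours, exposed continuously for five days to inhibitors at 0.5, 1, 5, 10, 50, 100, 500 and 1000 nM. Viability came from CellTiter-Glo luminescence, and surviving fraction is that signal normalised to the median of DMSO-only wells. Plates were read after 10 minutes at room temperature, and each line, screened three times, was kept only when replicate Pearson r was >0.7 and median Z' was >0.3.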

[2] = compound: Cc1c(N)nc([C@H](CC(N)=O)NC[C@H](N)C(N)=O)nc1C(=O)N[C@H](C(=O)N[C@H](C)[C@@H](O)[C@H](C)C(=O)N[C@H](C(=O)NCCc1nc(-c2nc(C(=O)NCCC[S+](C)C)cs2)cs1)[C@@H](C)O)[C@@H](OC1OC(CO)C(O)C(O)C1OC1OC(CO)C(O)C(OC(N)=O)C1O)c1cnc[nH]1 [BLEOMYCIN]; assay: as above; conditions: exposure time: 5 days
Method in brief: as §1

Test System | surviving fraction ([1]; 0.5 nM) | surviving fraction ([1]; 1 nM) | surviving fraction ([1]; 5 nM) | surviving fraction ([1]; 10 nM) | surviving fraction ([1]; 50 nM) | surviving fraction ([1]; 100 nM) | surviving fraction ([1]; 500 nM) | surviving fraction ([1]; 1000 nM) | surviving fraction ([2]; 0.5 nM) | surviving fraction ([2]; 1 nM) | surviving fraction ([2]; 5 nM) | surviving fraction ([2]; 10 nM) | surviving fraction ([2]; 50 nM) | surviving fraction ([2]; 100 nM) | surviving fraction ([2]; 500 nM) | surviving fraction ([2]; 1000 nM)
PCI30 HEADNECK | 0.955 ± 0.089 | 1.07 ± 0.066 | 1.07 ± 0.063 | 1.07 ± 0.082 | 0.83 ± 0.15 | 0.549 ± 0.011 | 0.343 ± 0.014 | 0.29 ± 0.014 | 0.917 ± 0.054 | 0.887 ± 0.054 | 0.942 ± 0.064 | 0.958 ± 0.04 | 0.655 ± 0.075 | 0.509 ± 0.048 | 0.32 ± 0.044 | 0.334 ± 0.033
RDES SOFT TISSUE | 1.26 ± 0.072 | 1.18 ± 0.21 | 1.17 ± 0.094 | 1.24 ± 0.14 | 1.48 ± 0.18 | 1.14 ± 0.29 | 0.453 ± 0.089 | 0.2 ± 0.03 | 0.743 ± 0.081 | 0.794 ± 0.28 | 0.732 ± 0.089 | 0.783 ± 0.096 | 0.985 ± 0.27 | 0.915 ± 0.09 | 0.947 ± 0.19 | 0.582 ± 0.2
S68 BREAST | 0.792 ± 0.081 | 1.01 ± 0.26 | 1.07 ± 0.13 | 1.06 ± 0.22 | 0.574 ± 0.13 | 0.273 ± 0.029 | 0.0663 ± 0.0023 | 0.0637 ± 0.0023 | 0.907 ± 0.057 | 0.858 ± 0.22 | 1.04 ± 0.15 | 0.847 ± 0.44 | 1.14 ± 0.15 | 0.911 ± 0.1 | 0.56 ± 0.076 | 0.369 ± 0.083
SAOS2 BONE | 1.18 ± 0.055 | 1.12 ± 0.043 | 1.171 ± 0.01 | 1.23 ± 0.1 | 1.08 ± 0.045 | 0.874 ± 0.0098 | 0.433 ± 0.039 | 0.36 ± 0.014 | 0.8247 ± 0.0029 | 0.805 ± 0.068 | 0.856 ± 0.016 | 0.698 ± 0.11 | 0.968 ± 0.024 | 0.904 ± 0.063 | 0.685 ± 0.034 | 0.462 ± 0.054
SCC003 HEADNECK | 1.06 ± 0.089 | 1.11 ± 0.036 | 1.08 ± 0.13 | 1.08 ± 0.11 | 0.776 ± 0.12 | 0.717 ± 0.093 | 0.366 ± 0.02 | 0.289 ± 0.04 | 0.782 ± 0.088 | 0.787 ± 0.087 | 0.792 ± 0.076 | 0.822 ± 0.12 | 0.975 ± 0.012 | 0.934 ± 0.039 | 0.56 ± 0.05 | 0.457 ± 0.016
SCC36 HEADNECK | 1 ± 0.15 | 1.05 ± 0.043 | 1.12 ± 0.048 | 1.16 ± 0.074 | 1.11 ± 0.08 | 0.966 ± 0.08 | 0.497 ± 0.022 | 0.352 ± 0.015 | 0.763 ± 0.09 | 0.762 ± 0.064 | 0.726 ± 0.027 | 0.7173 ± 0.004 | 0.998 ± 0.081 | 0.907 ± 0.1 | 0.631 ± 0.011 | 0.499 ± 0.012
SCC47 HEADNECK | 1.07 ± 0.091 | 1.07 ± 0.019 | 1.12 ± 0.019 | 1.11 ± 0.016 | 1.01 ± 0.092 | 0.996 ± 0.085 | 0.326 ± 0.023 | 0.33 ± 0.0059 | 0.907 ± 0.031 | 0.909 ± 0.046 | 0.917 ± 0.038 | 0.9 ± 0.019 | 0.843 ± 0.026 | 0.677 ± 0.047 | 0.466 ± 0.057 | 0.436 ± 0.035
SCC90 HEADNECK | 1.12 ± 0.06 | 1.12 ± 0.14 | 1.11 ± 0.018 | 1.03 ± 0.036 | 0.912 ± 0.066 | 0.722 ± 0.079 | 0.376 ± 0.014 | 0.288 ± 0.0071 | 0.933 ± 0.085 | 0.929 ± 0.061 | 0.94 ± 0.082 | 0.946 ± 0.018 | 1.06 ± 0.089 | 1.03 ± 0.085 | 0.885 ± 0.11 | 0.783 ± 0.044
SG27 HEADNECK | 0.989 ± 0.032 | 1.06 ± 0.041 | 0.888 ± 0.063 | 1.04 ± 0.049 | 0.91 ± 0.084 | 0.908 ± 0.065 | 0.717 ± 0.061 | 0.611 ± 0.04 | 1.12 ± 0.06 | 0.997 ± 0.085 | 0.934 ± 0.081 | 1.02 ± 0.011 | 0.949 ± 0.11 | 1.01 ± 0.17 | 1.01 ± 0.11 | 0.864 ± 0.14
SG28 HEADNECK | 1.13 ± 0.053 | 1.09 ± 0.085 | 0.945 ± 0.2 | 0.965 ± 0.063 | 0.762 ± 0.053 | 0.632 ± 0.087 | 0.459 ± 0.039 | 0.342 ± 0.032 | 0.864 ± 0.081 | 0.917 ± 0.11 | 0.892 ± 0.056 | 0.907 ± 0.13 | 0.944 ± 0.074 | 0.899 ± 0.053 | 0.909 ± 0.028 | 0.868 ± 0.1
SG31 HEADNECK | 1.1 ± 0.15 | 1.138 ± 0.0095 | 0.946 ± 0.091 | 1.02 ± 0.15 | 0.602 ± 0.088 | 0.569 ± 0.042 | 0.354 ± 0.029 | 0.289 ± 0.028 | 0.979 ± 0.12 | 0.924 ± 0.018 | 0.767 ± 0.12 | 0.805 ± 0.12 | 0.83 ± 0.046 | 0.733 ± 0.066 | 0.712 ± 0.13 | 0.595 ± 0.065
SG32 HEADNECK | 1.1 ± 0.18 | 1.03 ± 0.1 | 1.42 ± 0.26 | 1.25 ± 0.13 | 0.861 ± 0.061 | 0.497 ± 0.083 | 0.255 ± 0.013 | 0.176 ± 0.026 | 0.921 ± 0.32 | 0.967 ± 0.23 | 0.818 ± 0.069 | 0.825 ± 0.17 | 0.824 ± 0.071 | 0.698 ± 0.048 | 0.593 ± 0.094 | 0.427 ± 0.05
SG43 HEADNECK | 0.984 ± 0.18 | 1.23 ± 0.35 | 0.946 ± 0.1 | 0.956 ± 0.048 | 0.763 ± 0.12 | 0.77 ± 0.11 | 0.555 ± 0.037 | 0.36 ± 0.036 | 1.13 ± 0.058 | 1.08 ± 0.13 | 1.02 ± 0.096 | 0.81 ± 0.18 | 0.583 ± 0.015 | 0.78 ± 0.087 | 0.613 ± 0.17 | 0.391 ± 0.13
SIHA CERVIX | 1.08 ± 0.1 | 1.14 ± 0.099 | 1.07 ± 0.044 | 1.03 ± 0.046 | 0.642 ± 0.064 | 0.485 ± 0.029 | 0.237 ± 0.008 | 0.222 ± 0.016 | 0.959 ± 0.083 | 0.957 ± 0.017 | 1.02 ± 0.042 | 1.02 ± 0.046 | 1.08 ± 0.071 | 1.08 ± 0.059 | 0.961 ± 0.053 | 0.967 ± 0.024
SJSA1 BONE | 1.07 ± 0.064 | 1.04 ± 0.05 | 1.035 ± 0.004 | 1.02 ± 0.098 | 0.803 ± 0.031 | 0.623 ± 0.013 | 0.249 ± 0.015 | 0.206 ± 0.012 | 0.855 ± 0.056 | 0.861 ± 0.079 | 0.839 ± 0.026 | 0.773 ± 0.011 | 0.654 ± 0.029 | 0.504 ± 0.025 | 0.481 ± 0.029 | 0.44 ± 0.024
SKBR3 BREAST | 1.07 ± 0.18 | 0.925 ± 0.035 | 0.88 ± 0.046 | 1.07 ± 0.018 | 0.786 ± 0.097 | 0.564 ± 0.039 | 0.141 ± 0.014 | 0.116 ± 0.0092 | 0.886 ± 0.19 | 0.721 ± 0.1 | 0.81 ± 0.16 | 0.768 ± 0.15 | 0.872 ± 0.15 | 0.889 ± 0.099 | 0.87 ± 0.11 | 0.783 ± 0.13
SNU475 LIVER | 1.03 ± 0.038 | 1 ± 0.07 | 0.921 ± 0.036 | 0.932 ± 0.039 | 0.423 ± 0.018 | 0.285 ± 0.0051 | 0.137 ± 0.015 | 0.148 ± 0.0081 | 0.8647 ± 0.0059 | 0.859 ± 0.0092 | 0.838 ± 0.014 | 0.844 ± 0.024 | 0.8043 ± 0.0023 | 0.752 ± 0.043 | 0.53 ± 0.025 | 0.384 ± 0.0084
SUM44 BREAST | 1.03 ± 0.046 | 1.02 ± 0.067 | 1.04 ± 0.025 | 0.972 ± 0.021 | 0.724 ± 0.026 | 0.422 ± 0.072 | 0.104 ± 0.0081 | 0.099 ± 0.017 | 0.917 ± 0.045 | 0.918 ± 0.013 | 0.92 ± 0.058 | 0.93 ± 0.025 | 1.06 ± 0.037 | 0.973 ± 0.088 | 0.853 ± 0.059 | 0.824 ± 0.023
SUM149 BREAST | 1.11 ± 0.11 | 1.15 ± 0.044 | 1.04 ± 0.018 | 1 ± 0.059 | 0.715 ± 0.04 | 0.587 ± 0.024 | 0.153 ± 0.0052 | 0.108 ± 0.011 | 0.779 ± 0.092 | 0.889 ± 0.09 | 0.707 ± 0.034 | 0.451 ± 0.08 | 0.273 ± 0.029 | 0.255 ± 0.069 | 0.106 ± 0.015 | 0.048 ± 0.013
SUM149.B1*.S BREAST | 1.11 ± 0.041 | 1.12 ± 0.049 | 1.14 ± 0.038 | 1.12 ± 0.022 | 1.039 ± 0.0098 | 0.969 ± 0.072 | 0.376 ± 0.028 | 0.21 ± 0.0038 | 0.884 ± 0.032 | 0.943 ± 0.024 | 0.928 ± 0.028 | 0.883 ± 0.042 | 0.937 ± 0.066 | 0.939 ± 0.059 | 0.55 ± 0.061 | 0.394 ± 0.096
